For experiment [1], the system named is poly(dGdC)2 (DNA, polymer) GC. Description: UV-vis titration, Scatchard fit. The settings on record: Na+ (sodium cacodylate, I = 0.05 M); pH 5, 25 °C; n fixed at 0.2; polynucleotide concentration in phosphates; per base.
For experiment [2], the system named is poly(rA)–poly(rU) (RNA, polymer) A/U. Description: UV-vis titration, Scatchard fit. The settings on record: Na+ (sodium cacodylate, I = 0.05 M); pH 7, 25 °C; n fixed at 0.2; concentration in phosphates; log Ka 6.0 at pH 5; per base.
In experiment [3] the test system is poly(dAdT)2 (DNA, polymer) AT. Description: UV-vis titration, Scatchard fit. The settings on record: Na+ (sodium cacodylate, I = 0.05 M); pH 5, 25 °C; n fixed at 0.2; polynucleotide concentration in phosphates; per base.
In experiment [4] the test system is poly(dAdT)2 (DNA, polymer) AT. Description: UV thermal denaturation, 260 nm. The settings on record: Na+ (sodium cacodylate, I = 0.05 M); pH 5; r = [4]/[polynucleotide] = 0.1; per base.
The subject of experiment [5] is poly(dA)–poly(dT) (DNA, polymer) A/T. Kind of experiment: UV thermal denaturation, 260 nm. The settings on record: Na+ (sodium cacodylate, I = 0.05 M); pH 5; r = [4]/[polynucleotide] = 0.1; per base.
Experiment [6] has as its system poly(rA)–poly(rU) (RNA, polymer) A/U. Description: UV thermal denaturation, 260 nm. The settings on record: Na+ (sodium cacodylate, I = 0.05 M); pH 5; r = [4]/[polynucleotide] = 0.2; per base.
Experiment [7] deals with poly(dAdT)2 (DNA, polymer) AT. Kind of experiment: ITC, two sets of sites fit. The settings on record: Na+ (sodium cacodylate, I = 0.05 M); pH 5, 25 °C; site 1 of 2; polynucleotide concentration in phosphates; per base.
In experiment [8] the test system is poly(rA)–poly(rU) (RNA, polymer) A/U. Description: ITC, single set of sites fit. The settings on record: Na+ (sodium cacodylate, I = 0.05 M); pH 5, 25 °C; polynucleotide concentration in phosphates; per base. On the technique in general: ITC needs no label: the signal is the heat of the interaction.
Experiment [9] deals with poly(dA)–poly(dT) (DNA, polymer) A/T. Description: UV-vis titration, Scatchard fit. The settings on record: Na+ (sodium cacodylate, I = 0.05 M); pH 5, 25 °C; n fixed at 0.2; polynucleotide concentration in phosphates; per base.

In the case of `N=C(N)NC(=O)c1ccc(C(=O)NCCCC[C@H](N)C(=O)NCCN2C(=O)c3ccc4c5c(ccc(c35)C2=O)C(=O)N(CCNC(=O)[C@@H](N)CCCCNC(=O)c2ccc(C(=O)NC(=N)N)[nH]2)C4=O)[nH]1`, the “log Ka” value in experiment [1] was found to be 7.2; in experiment [2] it was 4.5; in [3], 5.8; in experiment [9], 6.4. The “∆Tm” value in experiment [4] stood at 10.0 ± 0.5 °C; in [5] it was 10.5 ± 0.5 °C; in experiment [6], 6.8 ± 0.5 °C. Further, the “log Ka1” value in experiment [7] came to 6.7; in experiment [8] it was 6.9.

(Values after article PMC7492691 (2020).)
